# Measurements reported in patent publication EP1120414A1, “DISUBSTITUTED MALEIMIDE COMPOUNDS AND MEDICINAL UTILIZATION THEREOF” (Japan Tobacco Inc., priority 1998, dated 2000).
# Like-named read-outs stand apart in the source and are kept apart here.
# How the values were obtained:
# PKC β II = target: T1, PKC β II (Homo sapiens, UniProt P05771); assay: PKC enzyme assay (BIOTRAK Protein kinase C enzyme assay system, 32P-ATP phosphorylation of peptide […]); assay type: biochemical; settings: for Ratio α/β: IC50 PKC α / IC50 PKC β II
# T1 construct: purchased CALBIOCHEM
# T1 sequence (P05771 other isoform, or with tags, fused parts or gaps): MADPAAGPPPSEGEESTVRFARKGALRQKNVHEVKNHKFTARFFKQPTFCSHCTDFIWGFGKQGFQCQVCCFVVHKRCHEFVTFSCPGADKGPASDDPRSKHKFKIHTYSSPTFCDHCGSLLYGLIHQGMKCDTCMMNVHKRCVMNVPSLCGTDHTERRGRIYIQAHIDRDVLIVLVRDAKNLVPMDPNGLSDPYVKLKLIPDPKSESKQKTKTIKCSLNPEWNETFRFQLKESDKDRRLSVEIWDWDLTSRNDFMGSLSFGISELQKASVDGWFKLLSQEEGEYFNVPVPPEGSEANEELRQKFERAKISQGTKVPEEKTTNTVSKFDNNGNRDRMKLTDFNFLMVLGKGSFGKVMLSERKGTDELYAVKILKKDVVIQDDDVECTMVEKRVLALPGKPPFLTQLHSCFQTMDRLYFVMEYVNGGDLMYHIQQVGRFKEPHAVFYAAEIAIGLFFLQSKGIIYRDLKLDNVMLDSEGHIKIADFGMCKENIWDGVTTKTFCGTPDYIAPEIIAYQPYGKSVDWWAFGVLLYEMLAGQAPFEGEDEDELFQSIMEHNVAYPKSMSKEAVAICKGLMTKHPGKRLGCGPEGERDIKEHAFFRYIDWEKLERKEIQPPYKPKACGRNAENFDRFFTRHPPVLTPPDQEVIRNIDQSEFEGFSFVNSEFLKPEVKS
# Excerpt: The method for determining the PKC inhibitory activity of the compound of the present invention is explained in the following. Inasmuch as PKCβII is present in greater number in intravascular cells than PKCβI, PKCβII was mainly used here to test the enzyme activity.
# (§1) As the reagent for enzyme assay, BIOTRAK Protein kinase C enzyme assay system (hereinafter the system, Amersham), and as the PKC enzyme standard product, Protein Kinase C, Human Recombinant (CALBIOCHEM) were purchased and used in the assay. A substrate mixture was prepared by mixing calcium buffer (12 mM calcium acetate, 50 mM Tris/HCl pH 7.5, 0.05% (w/v) sodium azide), Lipid (0.3 mg/ml La-phosphatidyl-L-serine, […] phorbol 12-myristate 13-acetate, 50 mM Tris/HCl pH 7.5, 0.05% (w/v) sodium azide), peptide buffer (900 µM peptide […]), 50 mM Tris/HCl pH 7.5, 0.05% (w/v) sodium azide), DTT buffer (30 mM dithiothreitol, 50 mM Tris/HCl pH 7.5, 0.05% (w/v) sodium azide), and magnesium ATP buffer (1.2 mM ATP, […] pH 7.4, 72 mM magnesium chloride) all attached to the system in a ratio of 1:1:1:1:0.8 and adding [ y -32P]ATP (Amersham, cat. […] The PKC enzyme standard product was diluted with an assay buffer (10 mM Hepes pH 7.4, 0.01% Triton X-100) to a concentration of 400 ng/ml and used as the enzyme solution. The substrate mixture and a test substance (diluted to the final concentration of 1 nM-10 µM with dimethyl sulfoxide (DMSO)) were mixed at a ratio of 20:1. The enzyme solution was added in the amount equivalent to the substrate mixture and mixed, which was followed by incubation at 37°C for 15 minutes. The reaction terminator (300 mM orthophosphoric acid containing carmosine red) attached to the system was added in the amount equivalent to the substrate mixture to end the reaction, and the reaction mixture was spotted on a phosphocellulose paper (Whatman, P-81), washed twice with 75 mM orthophosphoric acid and assayed for radioactivity by BAS2000 (Fuji film).
# (§2) The ratio of the radioactivity of the addition of the test substance to the addition of DMSO was determined, and IC50 was calculated from inhibition at each concentration.
# PKC α = target: T2, PKC α (Homo sapiens, UniProt P17252); assay: as above; assay type: biochemical
# T2 construct: purchased CALBIOCHEM
# Protocol: as §1, §2
# [1] = read-out: Inhibition of PKC activity IC50 PKC β II, Protein Kinase C, Human Recombinant, test substance 1 nM-10 µM, 37°C, 15 minutes
# [2] = read-out: Inhibition of PKC activity IC50 PKC α, Protein Kinase C, Human Recombinant, test substance 1 nM-10 µM, 37°C, 15 minutes
# [3] = Protein Kinase C, Human Recombinant, test substance 1 nM-10 µM, 37°C, 15 minutes, read-out: Inhibition of PKC activity IC50 PKC β II
# [4] = Protein Kinase C, Human Recombinant, test substance 1 nM-10 µM, 37°C, 15 minutes, read-out: Inhibition of PKC activity IC50 PKC α
Ratio α/β (PKC β II),IC50 (PKC β II; [1]) [nM],IC50 (PKC α; [2]) [nM],IC50 (PKC β II; [3]) [nM],IC50 (PKC α; [4]) [nM],IC50 (PKC β II) [nM],IC50 (PKC α) [nM],Compound
85,9,768,–,–,–,–,O=C1NC(=O)C(c2c3n(c4ccccc24)CC[C@H](CN2CCOCC2)C3)=C1Nc1ccccc1 [Example 4-26]
50,16,794,–,–,–,–,COc1ccc(NC2=C(c3c4n(c5ccccc35)C[C@@H](CO)C4)C(=O)NC2=O)cc1 [Example 4-62]
17,–,–,21,354,–,–,"O=C1NC(=O)C(c2cn(CCCn3ccnc3)c3ccccc23)=C1Nc1cccc(Cl)c1 [Example 2-39, 3-[(3-chlorophenyl)amino]-4-[1-(3-imidazol-1-ylpropyl)-1H-indol-3-yl]-1H-pyrrole-2,5-dione]"
45,–,–,103,4630,–,–,"CCN(CCCn1cc(C2=C(Nc3ccccc3)C(=O)NC2=O)c2ccccc21)Cc1ccccc1 [Example 2-17, 3-[1-{3-(N-benzyl-N-ethylamino)propyl}-1H-indol-3-yl)-4-(phenylamino)-1H-pyrrole-2,5-dione]"
82,6,494,–,–,–,–,CCN(CC)C[C@@H]1CCc2c(C3=C(Nc4ccccc4)C(=O)NC3=O)c3ccccc3n2C1 [Example 4-50]
60,–,–,21,1260,–,–,"CCN(CC)CCCn1cc(C2=C(Nc3ccccc3)C(=O)NC2=O)c2ccccc21 [Example 2-13, 3-[1-(3-diethylaminopropyl)-1H-indol-3-yl]-4-(phenylamino)-1H-pyrrole-2,5-dione]"
–,–,–,17,726,–,–,"O=C1NC(=O)C(c2cn(CCCN3CCCCC3)c3ccccc23)=C1Nc1ccccc1 [Example 2-20, 3-[1-(3-piperidinopropyl)-1H-indol-3-yl]-4-(phenylamino)-1H-pyrrole-2,5-dione]"
61,–,–,14,852,–,–,"O=C1NC(=O)C(c2c3n(c4ccccc24)CCC(CO)C3)=C1Nc1ccccc1 (stereo not drawn) [Example 4-1, 3-[8-hydroxymethyl-6,7,8,9-tetrahydropyrido[1,2-a]indol-10-yl]-4-(phenylamino)-1H-pyrrole-2,5-dione]"
–,–,–,–,–,8,723,"O=C1NC(=O)C(c2cn(CCCN3CCC(N4CCCC4)CC3)c3ccccc23)=C1Nc1ccccc1 [Example 2-49, 3-[1-(3-(4-pyrrolidinylpiperidino)propyl}-1H-indol-3-yl]-4-(phenylamino)-1H-pyrrole-2,5-dione]"
51,–,–,5,257,–,–,"CN(C)CC1CCn2c(c(C3=C(Nc4ccccc4)C(=O)NC3=O)c3ccccc32)C1 (stereo not drawn) [Example 4-2, 3-[8-(dimethylaminomethyl)-6,7,8,9-tetrahydropyrido[1,2-a]indol-10-yl]-4-(phenylamino)-1H-pyrrole-2,5-dione]"
46,–,–,56,2560,–,–,"Cl.N=C(N)N1CCC(Cn2cc(C3=C(Nc4ccccc4)C(=O)NC3=O)c3ccccc32)CC1 [Example 3-7, 3-[1-{(1-amidinopiperidin-4-yl)methyl}-1H-indol-3-yl]-4-(phenylamino)-1H-pyrrole-2,5-dione hydrochloride]"
65,–,–,84,5490,–,–,"CCN(C)CCCn1c(C)c(C2=C(Nc3ccccc3)C(=O)NC2=O)c2ccccc21 [Example 2-56, 3-[1-{3-(ethylmethylamino)propyl}-2-methyl-1H-indol-3-yl]-4-(phenylamino)-1H-pyrrole-2,5-dione]"
112,89,> 10000,–,–,–,–,NC(=O)c1cccc(NC2=C(c3c4n(c5ccccc35)C[C@H](CO)CC4)C(=O)NC2=O)c1 [Example 4-46]
109,46,4990,–,–,–,–,O=C1NC(=O)C(c2c3n(c4ccccc24)C[C@H](CN2CCOCC2)C3)=C1Nc1ccccc1 [Example 4-59]
17,–,–,60,> 1000,–,–,"O=C1NC(=O)C(c2cn(CCCn3cccn3)c3ccccc23)=C1Nc1ccccc1 [Example 2-37, 3-(phenylamino)-4-[1-(3-pyrazol-1-ylpropyl)-1H-indol-3-yl]-1H-pyrrole-2,5-dione]"
93,–,–,–,–,6,557,CCN(C)C[C@@H]1CCc2c(C3=C(Nc4ccccc4)C(=O)NC3=O)c3ccccc3n2C1 [Example 4-40]
31,–,–,261,8160,–,–,"O=C1NC(=O)C(c2cn(CC(O)CO)c3ccccc23)=C1Nc1ccccc1 (stereo not drawn) [Example 2-44, 3-[1-(2,3-dihydroxypropyl)-1H-indol-3-yl]-4-(phenylamino)-1H-pyrrole-2,5-dione]"
41,–,–,183,7530,–,–,"CCN(CCCn1cc(C2=C(Nc3ccccc3)C(=O)NC2=O)c2ccccc21)Cc1ccncc1 [Example 2-18, 3-[1-{3-[N-ethyl-N-(4-pyridylmethyl)amino]propyl}-1H-indol-3-yl]-4-(phenylamino)-1H-pyrrole-2,5-dione]"
82,33,2710,–,–,–,–,CCN(C)C[C@@H]1CCc2c(C3=C(Nc4ccc5c(c4)OCO5)C(=O)NC3=O)c3ccccc3n2C1 [Example 4-49]
–,–,–,–,–,16,1630,"O=C1NC(=O)C(c2c3n(c4ccccc24)CCC(Cn2ccnc2)C3)=C1Nc1ccccc1 (stereo not drawn) [Example 4-3, 3-[8-(1-imidazolylmethyl)-6,7,8,9-tetrahydropyrido[1,2-a]indol-10-yl]-4-(phenylamino)-1H-pyrrole-2,5-dione]"
36,–,–,66,2340,–,–,"O=C1NC(=O)C(c2cn(CCN3CCC(O)CC3)c3ccccc23)=C1Nc1ccccc1 [Example 2-47, 3-[1-{2-(4-hydroxypiperidino)ethyl}-1H-indol-3-yl]-4-(phenylamino)-1H-pyrrole-2,5-dione]"
77,–,–,28,2160,–,–,"CN(C)CCn1cc(C2=C(Nc3ccccc3)C(=O)NC2=O)c2ccccc21 [Example 2-9, 3-[1-(2-dimethylaminoethyl)-1H-indol-3-yl]-4-(phenylamino)-1H-pyrrole-2,5-dione]"
77,84,6460,–,–,–,–,COC[C@H]1Cc2c(C3=C(Nc4ccc(F)cc4)C(=O)NC3=O)c3ccccc3n2C1 [Example 4-57]
108,41,4450,–,–,–,–,O=C1NC(=O)C(c2c3n(c4ccccc24)C[C@@H](CN2CCOCC2)C3)=C1Nc1ccccc1 [Example 4-71]
69,16,1100,–,–,–,–,CCN(C)C[C@H]1Cc2c(C3=C(Nc4ccc(OC)cc4)C(=O)NC3=O)c3ccccc3n2C1 [Example 4-63]
27,–,–,18,484,–,–,"O=C1NC(=O)C(c2cn(CC3CCCNC3)c3ccccc23)=C1Nc1ccccc1 (stereo not drawn) [Example 3-1, 3-(phenylamino)-4-[1-(3-piperidylmethyl)-1H-indol-3-yl]-1H-pyrrole-2,5-dione]"
37,–,–,18,662,–,–,"O=C1NC(=O)C(c2cn(CCCN3CCCC3)c3ccccc23)=C1Nc1ccccc1 [Example 2-22, 3-(phenylamino)-4-(1-(3-pyrrolidin-1-ylpropyl)-1H-indol-3-yl]-1H-pyrrole-2,5-dione]"
117,–,–,20,2350,–,–,"Cc1c(C2=C(Nc3ccccc3)C(=O)NC2=O)c2ccccc2n1CCCn1ccnc1 [Example 2-69, 3-[1-(3-imidazol-1-ylpropyl)-2-methyl-1H-indol-3-yl]-4-(phenylamino)-1H-pyrrole-2,5-dione]"
75,4,321,–,–,–,–,CCNCC1Cc2c(C3=C(Nc4ccc(F)cc4)C(=O)NC3=O)c3ccccc3n2C1 (stereo not drawn) [Example 4-33]

Compound,Ratio α/β (PKC β II),IC50 (PKC β II; [1]) [nM],IC50 (PKC α; [2]) [nM],IC50 (PKC β II; [3]) [nM],IC50 (PKC α; [4]) [nM],IC50 (PKC β II) [nM],IC50 (PKC α) [nM]
CN(C)C[C@H]1CCc2c(C3=C(Nc4ccccc4)C(=O)NC3=O)c3ccccc3n2C1 [Example 4-55],63,–,252,4,–,–,–
CCN(CC)C[C@H]1Cc2c(C3=C(Nc4ccccc4)C(=O)NC3=O)c3ccccc3n2C1 [Example 4-65],61,–,1950,32,–,–,–
